Test results as given in US9926275B2 (priority 2013, dated 2018).
Read-outs that look alike come from different tables or passages of the source.

What was measured:
[1] = target: T1, CB1 receptor (Homo sapiens, UniProt P21554); test: β-arrestin recruitment in CNR1 PathHunter cell line, allosteric modulation of CP55,940 response; assay type: cell-based; details: for Emax: read-out: β-arrestin activity EMax (%)
Experimental: (§1) For allosteric determination, cells were preincubated with compound followed by agonist challenge at the EC20 concentration of the agonist. 5 μL of 4× compound was added to cells and incubated at 37° C. for 30 minutes. 5 μL of 4× EC20 agonist was added to cells and incubated at 37° C. for 30 minutes.
(§2) Data Analysis: Dose curves were plotted using GraphPad Prism or Activity Base. The percentage activity is calculated using the following formula: % Activity=100%×(1−(mean RLU of test sample−mean RLU of MAX control)/(mean RLU of vehicle control [EC20 for PAM]−mean RLU of MAXcontrol).
(§3) Agonist (CP55,940) dose curves were performed for the CNR1 PathHunter and cAMP Hunter cell lines. […] The cAMP assay was performed in the presence of 20 μM forskolin (EC80).
(§4) In Vitro Evaluation: The in vitro evaluation of the covalent allosteric modulators was performed using as described previously.

[2] = target: T1, CB1 receptor; test: DiscoveRx HitHunter cAMP XS+ assay in cAMP Hunter cell line, allosteric modulation of CP55,940 response; assay type: cell-based; details: for Emax: read-out: cAMP activity ECMax (%)
Experimental: Once it was established that the cells were healthy and growing normally, cells were passaged from flasks using cell dissociation reagent buffer and seeded into white walled clear bottom 384-well microplates for compound profiling. For profiling, cells were seeded at a density of 10000 cells per well in a total volume of 20 μL and were allowed to adhere and recover overnight prior to compound addition. Cells were treated the following day using the protocols shown below. cAMP modulation was determined using the DiscoveRx HitHunter cAMP XS+ assay.
Media was aspirated from cells and replaced with 10 μL 1:1 HBSS/Hepes: cAMP XS+ Ab reagent. Agonist (CP55,940) dose curves were performed to determine the EC20 value for the testing with the compounds of the present technology. 5 μL of 4× agonist was added to each well with an equal concentration of vehicle present. EC20 agonist concentration was determined directly from agonist dose curve.
as §1
Signal Detection: After appropriate compound incubation, assay signal was generated through incubation with 20 μL cAMP XS+ED/CL lysis cocktail for one hour followed by incubation with 20 μL cAMP XS+EA reagent for three hours at room temperature. Microplates were read following signal generation with a PerkinElmer Envision™ instrument for chemiluminescent signal detection.
as §2, §3, §4

[3] = Table 1, CP55,940 as agonist, read-out: β-arrestin EC50
[4] = Table 1, preincubation with compound, then CP55,940 challenge, 20 μM forskolin
[5] = Table 1, preincubation with compound, then CP55,940 challenge, 20 μM forskolin, read-out: cAMP EC50
[6] = Table 2, covalent allosteric modulators, read-out: β-arrestin activity EC50 (nm)
[7] = Table 2, covalent allosteric modulators
[8] = Table 2, covalent allosteric modulators, read-out: cAMP activity EC50 (nm)

T1 sequence (P21554 whole entry): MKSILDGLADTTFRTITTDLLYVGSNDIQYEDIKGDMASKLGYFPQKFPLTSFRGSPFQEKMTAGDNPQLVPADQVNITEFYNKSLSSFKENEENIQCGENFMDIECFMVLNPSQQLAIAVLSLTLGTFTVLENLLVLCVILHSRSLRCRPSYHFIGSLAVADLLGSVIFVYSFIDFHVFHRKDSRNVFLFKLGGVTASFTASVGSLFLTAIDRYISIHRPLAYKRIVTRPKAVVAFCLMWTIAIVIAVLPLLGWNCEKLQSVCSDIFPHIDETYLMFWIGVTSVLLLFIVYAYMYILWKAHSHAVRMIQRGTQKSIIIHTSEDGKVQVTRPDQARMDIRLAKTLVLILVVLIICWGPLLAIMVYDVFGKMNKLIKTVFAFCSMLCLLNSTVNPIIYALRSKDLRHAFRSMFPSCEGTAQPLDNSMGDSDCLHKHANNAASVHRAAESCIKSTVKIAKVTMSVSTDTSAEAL

CN(C(=O)Nc1ccc(Cl)cc1)c1cccc(-c2cccc(N3CCCC3)n2)c1 [Compound 27, 3-(4-Chlorophenyl)-1-methyl-1-(3-(6-(pyrrolidin-1-yl)pyridin-2-yl)phenyl)urea]
β-arrestin % inhibition ([1]; Table 1, CP55,940 as agonist): 109%
EC50 [1, 3]: 384 nM
cAMP % inhibition [2, 4]: 31%
EC50 [2, 5]: 527 nM

O=C(Nc1cccc(-c2cccc(N3CCCC3)n2)c1)Nc1ccccc1CCCCOC1CCCCO1 (stereo not drawn) [Compound 23c, 1-(3-(6-(Pyrrolidin-1-yl)pyridin-2-yl)phenyl)-3-(2-(4-((tetrahydro-2H-pyran-2-yl)oxy)butyl)phenyl)urea]
β-arrestin % inhibition ([1]; Table 1, CP55,940 as agonist): 69%
EC50 [1, 3]: 6190 nM
cAMP % inhibition [2, 4]: 20%
EC50 [2, 5]: > 10000 nM

CCc1c(C(=O)NCCc2ccc(N3CCCCC3)cc2)[nH]c2ccc(N=[N+]=[N-])cc12 [GAT206]
EC50 [1, 6]: 28 nM
Emax [1, 7]: 106%
EC50 [2, 8]: 391 nM
Emax [2, 7]: 89%

N#C/N=C(/Nc1ccc(Cl)cc1)Nc1cccc(-c2cccc(N3CCCC3)n2)c1 [Compound 35, (Z)-1-(4-Chlorophenyl)-2-cyano-3-(3-(6-(pyrrolidin-1-yl)pyridin-2-yl)phenyl)guanidine]
β-arrestin % inhibition ([1]; Table 1, CP55,940 as agonist): 69%
EC50 [1, 3]: 3060 nM
cAMP % inhibition [2, 4]: 29%
EC50 [2, 5]: 3340 nM

Cc1cc(Cl)ccc1NC(=O)Nc1cccc(-c2cccc(N3CCCC3)n2)c1 [Compound 10s, 1-(4-Chloro-2-methylphenyl)-3-(3-(6-(pyrrolidin-1-yl)pyridin-2-yl)phenyl)urea]
β-arrestin % inhibition ([1]; Table 1, CP55,940 as agonist): 109%
EC50 [1, 3]: 209 nM
cAMP % inhibition [2, 4]: 18%
EC50 [2, 5]: > 10000 nM

O=C(Nc1ccc(C(F)(F)F)cc1)Nc1cccc(-c2cccc(N3CCCC3)n2)c1 [Compound 10e, 1-(3-(6-(Pyrrolidin-1-yl)pyridin-2-yl)phenyl)-3-(4-(trifluoromethyl)phenyl)urea]
β-arrestin % inhibition ([1]; Table 1, CP55,940 as agonist): 128%
EC50 [1, 3]: 51 nM
cAMP % inhibition [2, 4]: 161%
EC50 [2, 5]: 218 nM

O=C(Nc1ccc(Cl)cc1)Nc1cccc(-c2cccc(N3CCCC3)c2)c1 [Compound 64]
β-arrestin % inhibition ([1]; Table 1, CP55,940 as agonist): 110%
EC50 [1, 3]: 27 nM
cAMP % inhibition [2, 4]: 84%
EC50 [2, 5]: 679 nM

COc1cccc(NC(=O)Nc2cccc(-c3cccc(N4CCCC4)n3)c2)c1 [Compound 10i, 1-(3-Methoxyphenyl)-3-(3-(6-(pyrrolidin-1-yl)pyridin-2-yl)phenyl)urea]
β-arrestin % inhibition ([1]; Table 1, CP55,940 as agonist): 109%
EC50 [1, 3]: 497 nM
cAMP % inhibition [2, 4]: 92%
EC50 [2, 5]: 1790 nM

O=C(Nc1cccc(-c2cccc(N3CCCC3)n2)c1)Nc1ccc(Cl)c(C#CCCOC2CCCCO2)c1 (stereo not drawn) [Compound 21b, 1-(4-Chloro-3-(4-((tetrahydro-2H-pyran-2-yl)oxy)but-1-yn-1-yl)phenyl)-3-(3-(6-(pyrrolidin-1-yl)pyridin-2-yl)phenyl)urea]
β-arrestin % inhibition ([1]; Table 1, CP55,940 as agonist): 111%
EC50 [1, 3]: 208 nM
cAMP % inhibition [2, 4]: 22%
EC50 [2, 5]: > 10000 nM

O=C(Nc1cccc(-c2cccc(N3CCCC3)n2)c1)Nc1ccccc1CO [Compound 17, 1-(2-(Hydroxymethyl)phenyl)-3-(3-(6-(pyrrolidin-1-yl)pyridin-2-yl)phenyl)urea]
β-arrestin % inhibition ([1]; Table 1, CP55,940 as agonist): 106%
EC50 [1, 3]: 672 nM
cAMP % inhibition [2, 4]: 33%
EC50 [2, 5]: 1140 nM

O=C(Nc1ccc(F)cc1)Nc1cccc(-c2cccc(N3CCCC3)n2)c1 [Compound 10t, 1-(4-Fluorophenyl)-3-(3-(6-(pyrrolidin-1-yl)pyridin-2-yl)phenyl)urea]
β-arrestin % inhibition ([1]; Table 1, CP55,940 as agonist): 108%
EC50 [1, 3]: 7 nM
cAMP % inhibition [2, 4]: 119%
EC50 [2, 5]: 148 nM

Clc1ccc(-c2nnc(Nc3cccc(-c4cccc(N5CCCC5)n4)c3)o2)cc1 [Compound 45, 5-(4-Chlorophenyl)-N-(3-(6-(pyrrolidin-1-yl)pyridin-2-yl)phenyl)-1,3,4-oxadiazol-2-amine]
β-arrestin % inhibition ([1]; Table 1, CP55,940 as agonist): 70%
EC50 [1, 3]: 3210 nM
cAMP % inhibition [2, 4]: 20%
EC50 [2, 5]: 4050 nM

S=C(Nc1ccc(Cl)cc1)Nc1cccc(-c2cccc(N3CCCC3)n2)c1 [Compound 32, 1-(4-Chlorophenyl)-3-(3-(6-(pyrrolidin-1-yl)pyridin-2-yl)phenyl)thiourea]
β-arrestin % inhibition ([1]; Table 1, CP55,940 as agonist): 110%
EC50 [1, 3]: 276 nM
cAMP % inhibition [2, 4]: 77%
EC50 [2, 5]: 830 nM

O=C(Nc1ccc(Cl)cc1)Nc1cccc(-c2cccc(N3CCCC3)n2)c1 [Compound 10a, 1-(4-Chlorophenyl)-3-(3-(6-(pyrrolidin-1-yl)pyridin-2-yl)phenyl)urea]
β-arrestin % inhibition [1]: 109%
cAMP % inhibition [2]: 108%

Cc1ccccc1NC(=O)Nc1cccc(-c2cccc(N3CCCC3)n2)c1 [Compound 10p, 1-(3-(6-(Pyrrolidin-1-yl)pyridin-2-yl)phenyl)-3-(o-tolyl)urea]
β-arrestin % inhibition ([1]; Table 1, CP55,940 as agonist): 104%
EC50 [1, 3]: 361 nM
cAMP % inhibition [2, 4]: 97%
EC50 [2, 5]: 1700 nM

O=C(Nc1cccc(-c2cccc(N3CCCC3)n2)c1)Nc1ccc(Cl)c(CCCCO)c1 [Compound 24b, 1-(4-Chloro-3-(4-hydroxybutyl)phenyl)-3-(3-(6-(pyrrolidin-1-yl)pyridin-2-yl)phenyl)urea]
β-arrestin % inhibition ([1]; Table 1, CP55,940 as agonist): 125%
EC50 [1, 3]: 1350 nM
cAMP % inhibition [2, 4]: 111%
EC50 [2, 5]: 1420 nM

O=C(Nc1cccc(-c2cccc(N3CCCC3)n2)c1)Nc1ccccc1C(F)(F)F [Compound 10g, 1-(3-(6-(Pyrrolidin-1-yl)pyridin-2-yl)phenyl)-3-(2-(trifluoromethyl)phenyl)urea]
β-arrestin % inhibition ([1]; Table 1, CP55,940 as agonist): 123%
EC50 [1, 3]: 2090 nM
cAMP % inhibition [2, 4]: 119%
EC50 [2, 5]: 1160 nM

COc1ccc(NC(=O)Nc2cccc(-c3cccc(N4CCCC4)n3)c2)cc1 [Compound 10h, 1-(4-Methoxyphenyl)-3-(3-(6-(pyrrolidin-1-yl)pyridin-2-yl)phenyl)urea]
β-arrestin % inhibition ([1]; Table 1, CP55,940 as agonist): 98%
EC50 [1, 3]: 99 nM
cAMP % inhibition [2, 4]: 97%
EC50 [2, 5]: 1230 nM

O=C(Nc1cccc(-c2cccc(N3CCCC3)n2)c1)Nc1ccccc1F [Compound 10u, 1-(2-Fluorophenyl)-3-(3-(6-(pyrrolidin-1-yl)pyridin-2-yl)phenyl)urea]
β-arrestin % inhibition ([1]; Table 1, CP55,940 as agonist): 107%
EC50 [1, 3]: 99 nM
cAMP % inhibition [2, 4]: 79%
EC50 [2, 5]: 330 nM

O=C(Nc1cccc(-c2cccc(N3CCCC3)n2)c1)Nc1ccc(Cl)c(C#CCCO)c1 [Compound 22b, 1-(4-Chloro-3-(4-hydroxybut-1-yn-1-yl)phenyl)-3-(3-(6-(pyrrolidin-1-yl)pyridin-2-yl)phenyl)urea]
β-arrestin % inhibition ([1]; Table 1, CP55,940 as agonist): 123%
EC50 [1, 3]: 149 nM
cAMP % inhibition [2, 4]: 152%
EC50 [2, 5]: 551 nM

O=C(Nc1ccc(Cl)cc1)Nc1cccc(-c2ccc(N3CCCC3)nc2)c1 [Compound 61, 1-(4-Chlorophenyl)-3-(3-(6-(pyrrolidin-1-yl)pyridin-3-yl)phenyl)urea]
β-arrestin % inhibition ([1]; Table 1, CP55,940 as agonist): 105%
EC50 [1, 3]: 880 nM
cAMP % inhibition [2, 4]: 6%
EC50 [2, 5]: > 10000 nM

O=C(Nc1cccc(-c2cccc(N3CCCC3)n2)c1)Nc1ccccc1C(=O)O [Compound 16, 2-(3-(3-(6-(Pyrrolidin-1-yl)pyridin-2-yl)phenyl)ureido)benzoic acid]
β-arrestin % inhibition ([1]; Table 1, CP55,940 as agonist): 1.5%
EC50 [1, 3]: > 10000 nM
cAMP % inhibition [2, 4]: 35%
EC50 [2, 5]: > 10000 nM

Cc1ccc(NC(=O)Nc2cccc(-c3cccc(N4CCCC4)n3)c2)cc1 [Compound 10n, 1-(3-(6-(Pyrrolidin-1-yl)pyridin-2-yl)phenyl)-3-(p-tolyl)urea]
β-arrestin % inhibition [1]: 127%
EC50 ([1]; β-arrestin EC50 nM): 119 nM
cAMP % inhibition [2]: 122%
EC50 ([2]; cAMP EC50 nM): 764 nM

O=C(Nc1cccc(-c2cccc(N3CCCC3)n2)c1)NC1CCCCC1 [Compound 10z, 1-Cyclohexyl-3-(3-(6-(pyrrolidin-1-yl)pyridin-2-yl)phenyl)urea]
β-arrestin % inhibition ([1]; Table 1, CP55,940 as agonist): 136%
EC50 [1, 3]: 333 ± 30 nM
cAMP % inhibition [2, 4]: 78%
EC50 [2, 5]: 659 nM

O=C(Nc1cccc(-c2cccc(N3CCCC3)n2)c1)Nc1ccc(Cl)cc1C#CCCOC1CCCCO1 (stereo not drawn) [Compound 21a, 1-(4-Chloro-2-(4-((tetrahydro-2H-pyran-2-yl)oxy)but-1-yn-1-yl)phenyl)-3-(3-(6-(pyrrolidin-1-yl)pyridin-2-yl)phenyl)urea]
β-arrestin % inhibition ([1]; Table 1, CP55,940 as agonist): 73%
EC50 [1, 3]: 3400 nM
cAMP % inhibition [2, 4]: 9%
EC50 [2, 5]: > 10000 nM

O=C(Nc1ccc(N=C=S)cc1)Nc1cccc(-c2cccc(N3CCCC3)n2)c1 [GAT332]
EC50 [1, 6]: 24 nM
Emax [1]: 106%
EC50 [2, 8]: 119 nM
Emax [2]: 78.9%
